Reference: patent US7365231B2, “Compound with antitumor activity and preparation method therefor” (National Taiwan University of Science & Technology, priority 2005, dated 2008)

What was measured:
Experiment in all cases: NCI panel growth inhibition, sulforhodamine B
Format in all cases: cell-based
[1] = tested on: M14; details: Homo sapiens; M14, Melanoma; drug for last 48 h of 72 h
Description: (§1) Comparison of anticancer activities of the 1,3-substituted adamantane derivatives, 1,3-bis(4-aminophenyl)adamantane (1,3-DPANH2), 1,3-bis(4-(4-aminophenoxy)phenyl)adamantane (1,3-DPAONH2), 1,3-bis(4-(4-amino-3-hydroxy)phenyl)adamantane (1,3-DPA/OH/NH2) and 1,3-bis(4-(4-amino-2-trifluoromethylphenoxy)phenyl)adamantane (1,3-DPA/CF3/NH2) as shown in FIG. 1 were synthesized in the present invention. Those compounds were submitted to the National Cancer Institute for anticancer assay in culture against a standard panel of cell lines. […] To further confirm that the different substituents (CF3 and OH) on the phenyl ring of 1,3-DPAONH2 affect the growth inhibition of cancer cells. […] The transformations of 1,3-DPAONH2 to 1,3-DPA/OH/NH2 led to a remarked enhancement of anticancer activity toward all the tested cancer lines. The role of the OH group at the ortho position of the NH2 on growth inhibition is remarkable. In addition, one compound (1,3-DPA/OH/NH2) was confirmed to have an IC50 of <1 μM against one of the cells (BT-549 breast carcinoma). Comparison of anticancer activities of 1,3-substituted diaminophenyladamantane derivatives, the following order of potency against the tested cancer lines was observed: 1,3-DPA/OH/NH2>1,3-DPAONH2>1,3-DPANH2>1,3-DPA/CF3/NH2.

[2] = tested on: SF-268; details: Homo sapiens; SF-268, CNS cancer; drug for last 48 h of 72 h
Description: as §1

[3] = tested on: SK-MEL-28; details: Homo sapiens; SK-MEL-28, Melanoma; drug for last 48 h of 72 h
Description: as §1

[4] = tested on: HL-60(TB); details: Homo sapiens, Leukemia, drug for last 48 h of 72 h
Description: as §1

[5] = tested on: COLO 205; details: Homo sapiens; COLO 205, Colon cancer; drug for last 48 h of 72 h
Description: as §1

[6] = tested on: SK-MEL-5; details: Homo sapiens; SK-MEL-5, Melanoma; drug for last 48 h of 72 h
Description: as §1

[7] = tested on: UO-31; details: Homo sapiens; UO-31, Renal cancer; drug for last 48 h of 72 h
Description: as §1

[8] = tested on: A549/ATCC; details: Homo sapiens, NSCLC, drug for last 48 h of 72 h
Description: as §1

[9] = tested on: CCRF-CEM; details: Homo sapiens, Leukemia, drug for last 48 h of 72 h
Description: as §1

[10] = tested on: EKVX; details: Homo sapiens, NSCLC, drug for last 48 h of 72 h
Description: as §1

[11] = tested on: OVCAR-4; details: Homo sapiens; OVCAR-4, Ovarian cancer; drug for last 48 h of 72 h
Description: as §1

[12] = tested on: OVCAR-5; details: Homo sapiens; OVCAR-5, Ovarian cancer; drug for last 48 h of 72 h
Description: as §1

[13] = tested on: 786-0; details: Homo sapiens; 786-0, Renal cancer; drug for last 48 h of 72 h
Description: as §1

[14] = tested on: SNB-19; details: Homo sapiens; SNB-19, CNS cancer; drug for last 48 h of 72 h
Description: as §1

[15] = tested on: DU-145; details: Homo sapiens; DU-145, Prostate cancer; drug for last 48 h of 72 h
Description: as §1

[16] = tested on: TK-10; details: Homo sapiens; TK-10, Renal cancer; drug for last 48 h of 72 h
Description: as §1

[17] = tested on: K-562; details: Homo sapiens, K562; K-562, Leukemia; drug for last 48 h of 72 h
Description: as §1

[18] = tested on: HCT-116; details: Homo sapiens; HCT-116, Colon cancer; drug for last 48 h of 72 h
Description: as §1

[19] = tested on: NCI-H522; details: Homo sapiens; NCI-H522, NSCLC; drug for last 48 h of 72 h
Description: as §1

[20] = tested on: MDA-MB-231; details: Homo sapiens; MDA-MB-231, Breast cancer; drug for last 48 h of 72 h
Description: as §1

[21] = tested on: MDA-MB-435; details: Homo sapiens; MDA-MB-435, Breast cancer; drug for last 48 h of 72 h
Description: as §1

[22] = tested on: SW-620; details: Homo sapiens; SW-620, Colon cancer; drug for last 48 h of 72 h
Description: as §1

[23] = tested on: OVCAR-3; details: Homo sapiens; OVCAR-3, Ovarian cancer; drug for last 48 h of 72 h
Description: as §1

[24] = tested on: KM12; details: Homo sapiens, KM12, KM12, Colon cancer; drug for last 48 h of 72 h
Description: as §1

[25] = tested on: SK-MEL-2; details: Homo sapiens; SK-MEL-2, Melanoma; drug for last 48 h of 72 h
Description: as §1

[26] = tested on: NCI-H226; details: Homo sapiens; NCI-H226, NSCLC; drug for last 48 h of 72 h
Description: as §1

[27] = tested on: OVCAR-8; details: Homo sapiens; OVCAR-8, Ovarian cancer; drug for last 48 h of 72 h
Description: as §1

[28] = tested on: PC-3; details: Homo sapiens; PC-3, Prostate cancer; drug for last 48 h of 72 h
Description: as §1

[29] = tested on: HCT-15; details: Homo sapiens; HCT-15, Colon cancer; drug for last 48 h of 72 h
Description: as §1

[30] = tested on: LOX IMVI; details: Homo sapiens, Melanoma, drug for last 48 h of 72 h
Description: as §1

Row | Compound | IC50 [1] | IC50 [2] | IC50 [3] | IC50 [4] | IC50 [5] | IC50 [7] | IC50 [10] | IC50 [11] | IC50 [14] | IC50 [16] | IC50 [17] | IC50 [18] | IC50 [20] | IC50 [22] | IC50 [23] | IC50 [25] | IC50 [26] | IC50 [27] | IC50 [29] | IC50 [30] | also measured
1 | Nc1ccc(Oc2ccc(C34CC5CC(C3)CC(c3ccc(Oc6ccc(N)cc6C(F)(F)F)cc3)(C5)C4)cc2)c(C(F)(F)F)c1 [1,3-DPA/CF3/NH2, 1,3-bis-(4-(4-amino-2-trifluoromethylphenoxy)phenyl)adamantane] | 16.9 µM | 17.4 µM | 43.2 µM | 24.2 µM | 19.1 µM | 39.1 µM | 15.4 µM | 36.6 µM | 22.5 µM | 16.1 µM | 43.9 µM | 24.9 µM | 15.2 µM | 36.3 µM | 17.9 µM | 14.1 µM | 19.4 µM | 16 µM | 31.8 µM | 17.9 µM | IC50 [6]: 22 µM; IC50 [8]: 19 µM; IC50 [9]: 36.2 µM; IC50 [12]: 27 µM; IC50 [13]: 31.5 µM; IC50 [15]: 35.2 µM; IC50 [19]: 14.4 µM; IC50 [21]: 24.2 µM; IC50 [24]: 21 µM; IC50 [28]: 14.8 µM
2 | Nc1ccc(Oc2ccc(C34CC5CC(C3)CC(c3ccc(Oc6ccc(N)c(O)c6)cc3)(C5)C4)cc2)cc1O [1,3-DPA/OH/NH2, 1,3-bis-(4-(4-amino-3-hydroxyphenoxy)phenyl)adamantane] | 1.59 µM | 1.16 µM | 2.74 µM | 2.12 µM | 1.84 µM | 1.95 µM | 1.68 µM | 2.02 µM | 1.31 µM | 5.57 µM | 3.46 µM | 1.39 µM | 1.62 µM | 2.89 µM | 1.85 µM | 2.45 µM | 5.05 µM | 2.03 µM | 1.76 µM | 1.64 µM | IC50 [6]: 1.88 µM; IC50 [8]: 1.52 µM; IC50 [13]: 2.83 µM; IC50 [15]: 1.72 µM; IC50 [19]: 1.4 µM; IC50 [21]: 1.92 µM; IC50 [24]: 1.72 µM; IC50 [28]: 1.94 µM
3 | Nc1ccc(C23CC4CC(C2)CC(c2ccc(N)cc2)(C4)C3)cc1 [1,3-DPANH2, 1,3-bis(4-aminophenyl)adamantane] | 37.1 µM | 45.2 µM | 15 µM | 30.9 µM | 2.3 µM | 4.87 µM | 36.6 µM | 10.2 µM | 37.8 µM | > 100 µM | 14.6 µM | 44.3 µM | 19.6 µM | 3.14 µM | 48.5 µM | 35.9 µM | 11.5 µM | 85.1 µM | 14.5 µM | > 100 µM | IC50 [6]: 13.1 µM; IC50 [8]: > 100 µM; IC50 [9]: 15.7 µM; IC50 [12]: 27.6 µM; IC50 [13]: 38.5 µM; IC50 [15]: 51.2 µM; IC50 [24]: > 100 µM
4 | Nc1ccc(Oc2ccc(C34CC5CC(C3)CC(c3ccc(Oc6ccc(N)cc6)cc3)(C5)C4)cc2)cc1 [1,3-DPAONH2, 1,3-bis(4-(4-aminophenoxy)phenyl)adamantane] | 9.62 µM | 5.6 µM | 18.8 µM | 17.1 µM | 13.3 µM | 13.6 µM | 15.6 µM | 6.98 µM | 8.66 µM | 24.9 µM | 7.08 µM | 5.65 µM | 16.9 µM | 6.52 µM | 3.08 µM | 15.7 µM | 23.2 µM | 4.82 µM | 4.99 µM | 2.44 µM | IC50 [6]: 13.8 µM; IC50 [8]: 10.3 µM; IC50 [9]: 4.83 µM; IC50 [12]: 19.1 µM; IC50 [13]: 8.09 µM; IC50 [15]: 6.41 µM; IC50 [19]: 13.3 µM; IC50 [21]: 5.22 µM; IC50 [24]: 4.07 µM; IC50 [28]: 11.5 µM
5 | Nc1ccc(C2(c3ccc(N)cc3)C3CC4CC(C3)CC2C4)cc1 [2,2-DPANH2, 2,2-bis(4-aminophenyl)adamantane] | 14.9 µM | 1.57 µM | 14.9 µM | 19.2 µM |  | 18.3 µM | 16.4 µM | 14.3 µM | 14.6 µM | 18 µM | 10.3 µM | 20.9 µM | 17.4 µM | 11.4 µM | 10.9 µM | 18.5 µM | 12.4 µM | 7.73 µM | 21.9 µM | 16.2 µM | IC50 [9]: 3.76 µM; IC50 [12]: 15.8 µM; IC50 [19]: 15.6 µM; IC50 [21]: 14.7 µM; IC50 [28]: 14.9 µM
6 | Nc1ccc(Oc2ccc(C3(c4ccc(Oc5ccc(N)cc5)cc4)C4CC5CC(C4)CC3C5)cc2)cc1 [2,2-DPAONH2, 2,2-bis(4-(4-aminophenoxy)phenyl)adamantane] | 2.28 µM | 6.44 µM | 10.5 µM | 5 µM | 2.71 µM | 3.02 µM | 4.76 µM | 6.96 µM | 10.1 µM | 14.3 µM | 3.89 µM | 2.71 µM | 17 µM | 5.03 µM | 2.58 µM | 16.8 µM | 21.4 µM | 5.82 µM | 4.94 µM | 2.75 µM | IC50 [6]: 8.38 µM; IC50 [8]: 3.38 µM; IC50 [9]: 3.03 µM; IC50 [12]: 15.3 µM; IC50 [13]: 3.07 µM; IC50 [15]: 3.31 µM; IC50 [19]: 4.28 µM; IC50 [21]: 6.04 µM; IC50 [24]: 3.55 µM; IC50 [28]: 6.75 µM
